The source of these data is patent US20040037860A1, “Free nicotine based cosmetic composition and uses thereof” (COLUMBUS, priority 2001, published 2004).

The test system of assay [1] is localized gynoid lipodystrophy of the thighs and of the buttocks (LGL). The settings on record: small dose, topical.
Experimental: The applicant carried out a comparative trial intended to evaluate the efficacy of the composition of the invention, as a local topical application, in patients with gynoid lipodystrophy of the thighs and of the buttocks, in comparison with a placebo, considered as a control group. Concomitantly, the effects of the composition on the softness and firmness of the skin were assessed.
It is a randomized comparative double blind monocenter trial comprising two groups of treatment of localized gynoid lipodystrophy of the thighs and of the buttocks (LGL):
This trial lasted for 9 weeks and comprised a one-week inclusion phase, followed by an 8-week treatment phase. It was carried out in patients suffering from LGL.
Evaluation carried out during the inclusion visit, at D28, and at the final visit for the principal and secondary criteria.
1.-Measurement of the adipose panicle by ultrasound scan, measured with the aid of a wide probe, by looking at the great trochanter of each femur.
The probe was placed on a tripod, at the constant level of the ground for each subject. The measurement was carried out after acquiring the last possible image by detaching the probe from the skin plane.
The conditions of assay [2]: no significant difference in weight versus placebo at D28 or D56.

`CN1CCCC1c1cccnc1` (centres unmarked) [Nicotine, nicotine]: in assay [1], the “reduction of the thickness of localized gynoid lipodystrophy (cellulite), on average” value was determined as 8.9%. In addition, the overall slimming effect entry in assay [2] is “no overall slimming effect”.
